According to US12492373B2, “Production method for nerve tissue” (Racthera Co., Ltd., priority 2014, dated 2025):

Experiments:
[1] = tested on: human iPS cells (1231A3 strain); assay: Immunostaining of aggregate sections for retinal tissue markers Chx10, Rx; format: cell-based; conditions: day 20
Procedure: Here, as step 3, culturing was performed under the following condition 1 and condition 2: Under condition 1(+BMP), on day 6 after the start of suspension culturing, the medium was changed to a medium free of Y27632 and containing human recombinant BMP4 (manufactured by R&D) such that the final concentration of exogenous human recombinant BMP4 was 1.5 nM (55 ng/ml) (FIG. 6B, D). Under condition 2(−BMP), on day 6 after the start of suspension culturing, a half amount of the medium was changed to a medium free of Y27632 and free of a BMP signal transduction pathway activating substance, without adding exogenous human recombinant BMP4 (FIG. 6A, C).
The thus-prepared cell aggregates on day 23 after the start of suspension culturing, which were produced from the above iPS cells that underwent a preconditioning treatment in step 1 as a starting material were fixed with 4% para-formaldehyde to prepare frozen sections. These frozen sections were immunostained for Chx10 (anti-Chx10 antibody, Exalpha, sheep), which is one of the retinal tissue markers, or Rx (anti-Rx antibody, Takara, guinea pig), which is one of the retinal tissue markers. These immunostained sections were observed under an inverted fluorescence microscope.
Cell aggregate were prepared according to the method described in Example 8 under conditions in which human iPS cells using StemFit medium as a feeder-free medium were used as a starting material, TGFβR inhibiting substance (SB431542) or BMPR inhibiting substance (LDN193189) was used in step 1, Shh signal transduction pathway activating substance was used in step 2, and BMP signal transduction pathway activating substance was added or not added in step 3. Neural tissues were formed in all the aggregates formed under all these conditions on day 23 after the start of suspension culturing. The above cell aggregates were fixed with 4% para-formaldehyde to prepare frozen sections. These frozen sections were immunostained for Chx10 (anti-Chx10 antibody, Exalpha, sheep), which is one of the retinal tissue markers, or Rx (anti-Rx antibody, Takara, guinea pig), which is one of the retinal tissue markers. These immunostained sections were observed under an fluorescence microscope. […] Furthermore, it was found from the analysis of serial sections that, in a neural tissue having a high (not less than 95%) proportion of Chx10-positive cells, Rx is also strongly positive (FIG. 9B, D, F, H).
Cell aggregates were prepared according to the method described in Example 10 by using, as a starting material, human iPS cells using Essential 8 medium as a feeder-free culturing, under conditions that TGFβR inhibiting substance (SB431542) are used in step 1, a Shh signal transduction pathway activating substance are used in step 2, and a BMP signal transduction pathway activating substance are added or are not added in step 3. The cell aggregates on day 18 after the start of suspension culturing were each fixed with 4% para-formaldehyde to prepare frozen section. These frozen sections were immunostained for Chx10 (anti-Chx10 antibody, Exalpha, sheep), which is one of the retinal tissue markers, or Rx (anti-Rx antibody, Takara, guinea pig), which is one of the retinal tissue markers, and observed under a fluorescence microscope. […] Furthermore, it was found from the analysis of serial sections that, in a neural tissue having a high (not less than 95%) proportion of Chx10-positive cells, Rx is also strongly positive. […]
A Cell aggregate was formed on day 18 after the start of suspension culturing under every conditions, and a neural tissue was formed (FIG. 14, upper panel). The above cell aggregates on day 18 after the start of suspension culturing were each fixed with 4% para-formaldehyde to prepare frozen section. […]

[2] = tested on: human iPS cells (1231A3 strain); assay: Neural tissue / neuroepithelium formation in cell aggregates, bright field observation; format: cell-based; conditions: day 20
Procedure: The above human iPS cells were treated with the cell dispersion solution by using TrypLE Select (Life Technologies), further dispersed into single cells by pipetting operation, and the above human iPS cells dispersed into single cells were suspended in 100 μl of a serum-free medium at 1.2×10^4 cells per well of a non-cell-adhesive 96-well culture plate ([…], manufactured by SUMITOMO BAKELITE), and subjected to suspension culturing at 37° C., 5% CO2. As the serum-free medium (gfCDM+KSR) therefor, a serum-free medium which is a 1:1 mixture of F-12 medium and IMDM medium supplemented with 10% KSR, 450 μM 1-monothioglycerol, 1× Chemically defined lipid concentrate was used. At the time of the start of suspension culturing (day 0 after the start of suspension culturing, start of step 2), Y27632 (final concentration 20 μM) was added to the above serum-free medium. By day 2 after the start of suspension culturing, cell aggregates were formed under both conditions with preconditioning and conditions without preconditioning (step 2 completed, step 3 start). On day 3 after the start of suspension culturing, a serum-free medium (50 μl) free of Y27632 was added. On day 6 or later after the start of suspension culturing, a half amount of the medium was changed to the above serum-free medium free of Y27632 once per 2-4 days. In the half-medium change operation, a half volume, namely 75 μl, of the medium in the culture vessel was discarded, the above fresh serum-free medium (75 μl) was added to make the total medium amount 150 μl. […]
At the time of the start of suspension culturing (day 0 after the start of suspension culturing, start of step 2), the cells were cultured under the following 2 conditions including condition 1 and condition 2. As condition 1(+SAG), at the time of the start of suspension culturing, Y27632 (final concentration 20 μM) and SAG (Shh signal transduction pathway activating substance, 300 nM) were added to the above serum-free medium. As condition 2(−SAG), at the time of the start of suspension culturing, Y27632 (final concentration 20 μM) was added to the above serum-free medium and SAG was not added. By day 2 after the start of suspension culturing, cell aggregates were formed (step 2 completed, step 3 start) under both conditions. On day 3 after the start of suspension culturing, a medium (50 μl) free of Y27632, SAG and containing human recombinant BMP4 (manufactured by R&D) was added such that the final concentration of exogenous human recombinant BMP4 was 1.5 nM (55 ng/ml). On day 6 after the start of suspension culturing, a half amount of the medium was changed with a serum-free medium free of Y27632, SAG and human recombinant BMP4. Thereafter, a half amount of the medium was changed, once every 2-4 days, with the above serum-free medium free of Y27632, SAG, and human recombinant BMP4.
The thus-prepared cells were subjected to bright field observation on day 18 after the start of suspension culturing under an inverted microscope (KEYENCE) (FIG. 15).
At the time of the start of suspension culturing (day 0 after the start of suspension culturing, start of step 2), the cells were cultured under the following 2 conditions including condition 1 and condition 2. As condition 1(+SAG), at the time of the start of suspension culturing, Y27632 (final concentration 20 μM) and SAG (Shh signal transduction pathway activating substance, final concentration 30 nM) were added to the above serum-free medium. As condition 2(−SAG), at the time of the start of suspension culturing, Y27632 (final concentration 20 μM) was added to the above serum-free medium and SAG was not added. By day 2 after the start of suspension culturing, cell aggregates were formed under both conditions (step 2 completed, step 3 start). […]

[3] = A83-01 0.5 μM 1 day in step 1, SAG 30 nM in step 2, BMP4 1.5 nM on day 3

Structure (SMILES)	proportion of Chx10-positive cells in the total cells ([1]; A83-01 0.5 μM and SAG 300 nM in step 1, substance added in step 2 (SAG 30 nM, Purmorphamine 0.2 μM or human recombinant Shh 300 ng/ml), BMP4 1.5 nM on day 3)	cell aggregate and neural tissue formation [2, 3]	cell aggregate and neural tissue formation ([2]; step 1 for 1 day: A83-01 0.5 μM alone or with SAG 300 nM, Purmorphamine 0.2 μM, or human recombinant Shh 50 ng/ml or 300 ng/ml, SAG 30 nM in step 2, BMP4 1.5 nM on day 3)	proportion of Chx10-positive cells in the total cells [1, 3]
c1ccc2c(Oc3nc(Nc4ccc(N5CCOCC5)cc4)c4ncn(C5CCCCC5)c4n3)cccc2c1 [Purmorphamine, 9-cyclohexyl-N-[4-(4-morpholinyl)phenyl]-2-(1-naphthalenyloxy)-9H-purin-6-amine]	about 90%			
Cc1cccc(-c2nn(C(=S)Nc3ccccc3)cc2-c2ccnc3ccccc23)n1 [A83-01, 3-(6-methyl-2-pyridinyl)-N-phenyl-4-(4-quinolinyl)-1H-pyrazole-1-carbothioamide]		a neural tissue can be formed efficiently	a neural tissue can be produced efficiently	about 20%
